Bounds are passed on as bounds.

In the data set the test system is UGT2B. Kind of data set: in vitro. The following applies: for inhibition at 60 min: inhibition rate on the metabolism of nalbuphine in microsome. The protocol:
In the following experiment, 27 different kinds of CHEs and 10 different excipients were used as UGT2B inhibitor in this invention. These CHEs are pure compounds available commercially, and were purchased from Sigma Chemical Co., Nacalai Tesque (Kyoto, Japan) and Indofine Chemical Co., Inc. (Somerville, N.J.). These UGT2B inhibitors are dissolved in alcohol at the concentration of 1, 10, 100 μM for the following experiment.
These excipients are dissolved in water and make up to 0.5%, 5%, 50% (wt %, w/v) for the following experiment. (Note: BRIJ is a registered trademark of ICI Americas, Inc.; Pluronic is a registered trademark of BASF Corporation.)
The Sprague-Dawley male rats, weighted 300-400 g are used as model animals in these experiments. The microsome is prepared as follows: • i. Sacrifice a rat after 12-16 hours fasting, take its liver; wipe dry the liver and weigh it. • ii. Add 300% (by volume) of cold 0.3M sucrose solution, and homogenize the liver. • iii. Centrifuge the homogenized liver suspension at 9000×g speed (KS-800, Kubota, made in Japan) for 10 min at 4° C. Collect the supernatant. • iv. Centrifuge the supernatant at 105,000×g speed (L8-60M, Beckman, made in USA) for 60 min at 4° C. • v. Remove the supernatant, add 0.3M sucrose (of the same volume) and repeat the homogenization. The homogenized liver suspension is the microsome. Store the microsome at −70° C.
Thaw the microsome before use. Add 5 μl/ml BRIJ®35 (Fisher et al. 2000, Drug Metabolism & Disposition. 28(5):560-6) into microsome by a ratio of microsome:BRIJ®35=8:1 (v/v).
The protein amount is determined as follows: • i. Take 0.1 ml microsome and dilute to 5 ml 0.85% NaCl (50-fold dilution, v/v). Take 0.2 ml of the diluted microsome and place it in a capped test tube (triple experiments). Separately, replacing microsome with 0.2 ml NaCl as the control. • ii. Add 2.2 ml Biuret regent (SIGMA, 690-A) into each test tube, mix well and store at room temperature for 10 min. • iii. Add 0.1 ml folin regent (SIGMA, 690-A), mix immediately, and store at room temperature for 30 min. Measure the absorbance at 550 nm wave length within the 30 min. Measure the concentration of protein in microsome based on the standard curve generated by various bovine albumin concentration and absorbance. 4. The Measurement of the Inhibition of UGT2B Activity in vitro • i. […] Mix solution (A) and 17 μl solution (B) thoroughly, place in a 37° C. water bath and shake at 125 rpm for 60 min. • iii. Add 1 ml ACN to interrupt the reaction. • iv. Centrifuge at 130,000×g speed at 4° C. for 5 min, and • v. […] 5.
Set the Ultra-violet detector's (SPD-10A, Shimadzu, Kyoto, made in Japan) wave length to 210 nm.
Those CHEs are commercially available pure compounds, acquired from Sigma Chemical Co., Nacalai Tesque (Kyoto, Japan) and […] (Somerville, N.J.). Their categories, names, sources, and chemical compositions are described in Table 5.

[1] abbreviates: male, Sprague-Dawley, rat, % Inhibition (Mean ± SD).
Where [2] appears, read: male, Sprague-Dawley, rat, 60 min, 8.5 μM.
Setting [3] is: male, Sprague-Dawley, rat, 60 min, 85 μM.
Where [4] appears, read: male, Sprague-Dawley, rat, 60 min, 850 μM.

On to `Oc1cc(O)c2c(c1)OC(c1ccc(O)c(O)c1)[C@@H](O)C2` (single isomer, unassigned; (+)) [(+)-catechin, (+)-Catechin], for which, under setting [1], the inhibition (as a rule, the drop in the measured response relative to a control, in per cent) at 60 min, 8.5 μM was -68.4 ± 7.34%; the inhibition at 60 min, 85 μM is -54.8 ± 9.38%; the inhibition at 60 min, 850 μM was -65.3 ± 47%.

For the compound `Oc1cc(O)c2c(c1)OC(c1ccc(O)c(O)c1)[C@@H](O)C2` (single isomer, unassigned; (+)) [(+)-epicatechin, (+)-Epicatechin], the “% Inhibition (Mean ± SD)” value was −32.553 ± 1.578% under setting [2], −47.075 ± 0.533% under setting [3] and −8.118 ± 1.256% under setting [4].

As for `C=C(C)C1CC=C(C)CC1` (single isomer, unassigned; (+)) [(+)-limonene, (+)-Limonene], under setting [1], the inhibition at 60 min, 8.5 µM turned out to be 18.3 ± 0.793%; the inhibition at 60 min, 85 µM is 45.3 ± 7.84%; the inhibition at 60 min, 850 µM turned out to be 44.2 ± 2.28%. Moreover, the inhibition at 60 min (male, Sprague-Dawley, rat) is at least 30%.

`Oc1cc(O)c2c(c1)OC(c1ccc(O)c(O)c1)[C@@H](O)C2` (single isomer, unassigned; (-)) [(−)-epicatechin, (−)-Epicatechin]: the “% Inhibition (Mean ± SD)” value by setting is: under setting [2], −28.68 ± 17.634%; under setting [3], −23.53 ± 27.304%; under setting [4], −48.35 ± 39.354%.

Regarding `CC(=O)OCCCc1ccccc1` [3-phenylpropyl acetate, 3-Phenylpropyl Acetate], under setting [1], the inhibition at 60 min, 8.5 µM is -26.3 ± 27.3%; the inhibition at 60 min, 8.5 μM is -26.3 ± 27.3%; the inhibition at 60 min, 85 µM stood at 17.3 ± 5.84%; the inhibition at 60 min, 85 μM is 17.3 ± 5.84%. Moreover, under setting [1], the inhibition at 60 min, 850 µM was found to be 2.39 ± 22.5% and the inhibition at 60 min, 850 μM turned out to be 2.39 ± 22.5%.

As to `O=c1cc(-c2ccc(O)cc2)oc2cc(O)cc(O)c12` [apigenin, Apigenin], under setting [1], the inhibition at 60 min, 8.5 µM was -26.7 ± 13.1%; the inhibition at 60 min, 8.5 μM is -26.7 ± 13.1%; the inhibition at 60 min, 85 µM turned out to be 54 ± 15.8%; the inhibition at 60 min, 85 μM is 54 ± 15.8%. Moreover, under setting [1], the inhibition at 60 min, 850 µM was -16.1 ± 17.9% and the inhibition at 60 min, 850 μM is -16.1 ± 17.9%.

As to `O=c1cc(-c2ccccc2)oc2cc(O)c(O)c(O)c12` [baicalein], under setting [1], the inhibition at 60 min, 8.5 μM was -99.6 ± 12.8%; the inhibition at 60 min, 85 μM was -125 ± 8.62%; the inhibition at 60 min, 212.5 μM is -146 ± 8.47%.

Turning to `O=C(O)[C@H]1O[C@@H](Oc2cc3oc(-c4ccccc4)cc(=O)c3c(O)c2O)[C@H](O)[C@@H](O)[C@@H]1O` [baicalin], the “% Inhibition (Mean ± SD)” value runs as follows: (Table 2, inhibitor 8.5 μM, metabolism of nalbuphine in rat liver microsome) 36.298 ± 9.403%; (Table 2, inhibitor 85 μM, metabolism of nalbuphine in rat liver microsome) 46.253 ± 22.923%; (Table 2, inhibitor 850 μM, metabolism of nalbuphine in rat liver microsome) 44.262 ± 2.879%.

In the case of `COc1c(O)cc2oc(Oc3ccc(O)cc3)cc(=O)c2c1O` [capillarisin, Capillarisin], under setting [1], the inhibition at 60 min, 8.5 µM came out at 111 ± 21.8%; the inhibition at 60 min, 85 µM stood at 105 ± 21.8%; the inhibition at 60 min, 850 µM came out at 105 ± 19.3%. Also, under “male, Sprague-Dawley, rat”, the inhibition at 60 min came out at 111%.

As to `CC12CCC(CC1)C(C)(C)O2` [cineole, Cineole], under setting [1], the inhibition at 60 min, 8.5 µM is -8.41 ± 18.6%; the inhibition at 60 min, 8.5 μM was -8.41 ± 18.6%; the inhibition at 60 min, 85 µM is -12.1 ± 6.68%; the inhibition at 60 min, 85 μM was -12.1 ± 6.68%. Under setting [1], the inhibition at 60 min, 850 µM amounted to 58.9 ± 8.56% and the inhibition at 60 min, 850 μM was 58.9 ± 8.56%.

Consider `O=c1c(-c2ccc(O)cc2)coc2cc(O)ccc12` [daidzein, Daidzein], for which, under setting [1], the inhibition at 60 min, 8.5 μM is -128 ± 20.8%; the inhibition at 60 min, 85 μM is -138 ± 4.62%; the inhibition at 60 min, 425 μM was -138 ± 2.31%.

As for `O=c1c(-c2ccc(O)cc2)coc2cc(O[C@@H]3O[C@H](CO)[C@@H](O)[C@H](O)[C@H]3O)ccc12` [daidzin, Daidzin], for the setting “male, Sprague-Dawley, rat”, the inhibition at 60 min, 8.5 μM is -29.5 ± 22%; the inhibition at 60 min, 85 μM is -41.5 ± 17%; the inhibition at 60 min, 850 μM was -61 ± 21.1%.

Regarding `CC(C)[C@@H](C)/C=C/[C@@H](C)[C@H]1CC[C@H]2C3=CC=C4C[C@@H](O)CC[C@]4(C)[C@H]3CC[C@]12C` [ergosterol, Ergosterol], the inhibition at 60 min, 8.5 μM (male, Sprague-Dawley, rat, liver microsomes, probe nalbuphine, % Inhibition (Mean ± SD), Table 6, enhancer 8.5 μM, negative = enhancement) is -12.5 ± 28.9%. For the setting “male, Sprague-Dawley, rat, liver microsomes, probe nalbuphine, % Inhibition (Mean ± SD), Table 6, enhancer 85 μM, negative = enhancement”, the inhibition at 60 min, 85 μM is -28.3 ± 20.3%. Where the note is “male, Sprague-Dawley, rat, liver microsomes, probe nalbuphine, % Inhibition (Mean ± SD), Table 6, enhancer 850 μM, negative = enhancement”, the inhibition at 60 min, 850 μM is -34.6 ± 19.9%.

`O=C1CC(c2ccc(O)c(O)c2)Oc2cc(O)cc(O)c21` (stereo not shown) [eriodictyol, Eriodictyol]: under setting [1], the inhibition at 60 min, 8.5 µM was -1.06 ± 3.71%; the inhibition at 60 min, 8.5 μM was -1.06 ± 3.71%; the inhibition at 60 min, 85 µM is -17.1 ± 2.3%; the inhibition at 60 min, 85 μM was -17.1 ± 2.3%. Moreover, under setting [1], the inhibition at 60 min, 850 µM worked out at 14.1 ± 2.88% and the inhibition at 60 min, 850 μM turned out to be 14.1 ± 2.88%. For the setting “male, Sprague-Dawley, rat”, the inhibition at 60 min is at least 30%.

With `CCCCCCCCCCCCCC(=O)OCC` [ethyl myristate, Ethyl Myristate], under setting [1], the inhibition at 60 min, 8.5 µM was -27.8 ± 14.7%; the inhibition at 60 min, 8.5 μM was -27.8 ± 14.7%; the inhibition at 60 min, 85 µM is -12.1 ± 5.71%; the inhibition at 60 min, 85 μM was -12.1 ± 5.71%. For the same compound, under setting [1], the inhibition at 60 min, 850 µM came to 6.33 ± 1.48% and the inhibition at 60 min, 850 μM was determined as 6.33 ± 1.48%.

Regarding `COc1ccc(-c2coc3cc(O)ccc3c2=O)cc1` [formononetin, Formononetin], under setting [1], the inhibition at 60 min, 8.5 μM was -86.5 ± 3.49%; the inhibition at 60 min, 85 μM is -31.5 ± 4.78%; the inhibition at 60 min, 850 μM is -24.7 ± 4.42%.

In the case of `O=C(O)c1cc(O)c(O)c(O)c1` [gallic acid, Gallic Acid], under setting [1], the inhibition at 60 min, 8.5 µM stood at 15.8 ± 4.42%; the inhibition at 60 min, 85 µM amounted to 8.05 ± 3.02%; the inhibition at 60 min, 850 µM came out at 12.2 ± 4.08%.

As for `O=c1c(-c2ccc(O)cc2)coc2cc(O)cc(O)c12` [genistein, Genistein], under “male, Sprague-Dawley, rat”, the inhibition at 60 min, 8.5 µM was found to be 15.6 ± 6.05%; the inhibition at 60 min, 8.5 μM stood at 15.6 ± 6.05%; the inhibition at 60 min, 85 µM is 5.73 ± 6.41%; the inhibition at 60 min, 85 μM came out at 5.73 ± 6.41%. Also, for the setting “male, Sprague-Dawley, rat”, the inhibition at 60 min, 850 µM is -9.2 ± 5.18% and the inhibition at 60 min, 850 μM is -9.2 ± 5.18%.

As for `COc1cc(O)c2c(=O)cc(-c3ccc(O)cc3)oc2c1` [genkwanin], under setting [1], the inhibition at 60 min, 8.5 μM is -27 ± 4.51%; the inhibition at 60 min, 85 μM was -77.7 ± 20.7%; the inhibition at 60 min, 850 μM was -43.2 ± 18.8%.

For `CC1(C)[C@@H](O[C@H]2O[C@H](C(=O)O)[C@@H](O)[C@H](O)[C@H]2O[C@@H]2O[C@H](C(=O)O)[C@@H](O)[C@H](O)[C@H]2O)CC[C@]2(C)[C@H]3C(=O)C=C4[C@@H]5C[C@@](C)(C(=O)O)CC[C@]5(C)CC[C@@]4(C)[C@]3(C)CC[C@@H]12` [glycyrrhizin, Glycyrrhizin], under setting [1], the inhibition at 60 min, 8.5 µM was found to be 9.93 ± 6.66%; the inhibition at 60 min, 8.5 μM turned out to be 9.93 ± 6.66%; the inhibition at 60 min, 85 µM was -20.3 ± 3.67%; the inhibition at 60 min, 85 μM was -20.3 ± 3.67%. Moreover, under setting [1], the inhibition at 60 min, 850 µM is -5.65 ± 6.62% and the inhibition at 60 min, 850 μM was -5.65 ± 6.62%.

With `COc1ccc(C2CC(=O)c3c(O)cc(O)cc3O2)cc1O` (stereo not shown) [hesperetin, Hesperetin], under setting [1], the inhibition at 60 min, 8.5 µM was found to be 51.7 ± 21.7%; the inhibition at 60 min, 8.5 μM is 51.7 ± 21.7%; the inhibition at 60 min, 85 µM was -59.1 ± 18.9%; the inhibition at 60 min, 85 μM is -59.1 ± 18.9%. Under setting [1], the inhibition at 60 min, 850 µM is -124 ± 49.4% and the inhibition at 60 min, 850 μM is -124 ± 49.4%. Moreover, where the note is “male, Sprague-Dawley, rat”, the inhibition at 60 min was at least 30%.

`COc1ccc([C@@H]2CC(=O)c3c(O)cc(O[C@@H]4O[C@H](CO[C@@H]5O[C@@H](C)[C@H](O)[C@@H](O)[C@H]5O)[C@@H](O)[C@H](O)[C@H]4O)cc3O2)cc1O` [hesperidin, Hesperidin]: under setting [1], the inhibition at 60 min, 8.5 μM came to 2.16 ± 2.73%; the inhibition at 60 min, 85 μM was -32 ± 10.3%; the inhibition at 60 min, 850 μM was -42 ± 4.25%.

For the origin of these results see patent US9415034B2, “Inhibitors and enhancers of uridine diphosphate-glucuronosyltransferase 2B (UGT2B)” (NATIONAL DEFENSE MEDICAL CENTER, priority 2005, dated 2016).
